Experimental data published in publication PMC5282883, “Droplet-based microfluidic high-throughput screening of heterologous enzymes secreted by the yeast Yarrowia lipolytica” (Microbial Cell Factories, 2017).

Columns and labels:
Assay in all cases: fluorogenic hydrolysis assay, crude supernatant
Format in all cases: biochemical
Conditions in all cases: 150 µM substrate, 50 mM acetate buffer pH 4.5, 25 °C
[1] = molecular target: T1, endoglucanase A (Aspergillus niger, UniProt A2R322)
T1 construct: gene eglA; codon-optimised gene secreted by Yarrowia lipolytica strain JMY4343; crude supernatant; 26 kDa on SDS-PAGE
T1 sequence (A2R322 17-239): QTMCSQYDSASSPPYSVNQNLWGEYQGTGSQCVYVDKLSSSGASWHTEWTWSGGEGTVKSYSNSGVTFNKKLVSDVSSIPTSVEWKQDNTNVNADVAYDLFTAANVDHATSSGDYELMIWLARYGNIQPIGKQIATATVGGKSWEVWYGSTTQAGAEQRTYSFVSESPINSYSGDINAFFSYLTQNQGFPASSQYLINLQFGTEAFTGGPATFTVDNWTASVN

[2] = molecular target: T2, endo-β-1,4-xylanase B (Aspergillus niger, UniProt A2Q7I0)
T2 construct: gene xlnB; codon-optimised gene secreted by Yarrowia lipolytica strain JMY4346; crude supernatant; 22 kDa on SDS-PAGE
T2 sequence (A2Q7I0 19-225): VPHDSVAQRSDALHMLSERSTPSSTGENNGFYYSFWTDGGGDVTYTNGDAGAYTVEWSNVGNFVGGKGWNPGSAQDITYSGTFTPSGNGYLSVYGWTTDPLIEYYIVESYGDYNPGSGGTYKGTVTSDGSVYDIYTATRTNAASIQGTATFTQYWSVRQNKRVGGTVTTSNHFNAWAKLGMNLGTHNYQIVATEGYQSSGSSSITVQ

[3] = molecular target: T3, endo-β-1,4-xylanase C (Aspergillus niger, UniProt A2QFV7)
T3 construct: gene xlnC; codon-optimised gene secreted by Yarrowia lipolytica strain JMY4510; crude supernatant

## O=c1cc(CS(=O)(=O)O)c2cc(F)c(O[C@@H]3O[C@H](CO)[C@@H](O[C@@H]4O[C@H](CO)[C@@H](O)[C@H](O)[C@H]4O)[C@H](O)[C@H]3O)c(F)c2o1 [β-D-cellobioside-6,8-difluoro-7-hydroxycoumarin-4-methansulfonate]
[1]
  fluorogenic hydrolysis assay, crude supernatant: JMY4343 (egla) displayed a low activity with this substrate

## O=c1cc(CS(=O)(=O)O)c2cc(F)c(O[C@@H]3OC[C@@H](O[C@@H]4OC[C@@H](O)[C@H](O)[C@H]4O)[C@H](O)[C@H]3O)c(F)c2o1 [β-D-xylobioside-6,8-difluoro-7-hydroxycoumarin-4-methansulfonate]
[2]
  fluorogenic hydrolysis assay, crude supernatant: The JMY4346 (xlnb) and JMY4510 (xlnc) strains exhibited similar levels of endo-β-1,4-xylanase activity
[3]
  fluorogenic hydrolysis assay, crude supernatant: The JMY4346 (xlnb) and JMY4510 (xlnc) strains exhibited similar levels of endo-β-1,4-xylanase activity
